pKi: −log10 of the molar value.
Key:
Assay type in all cases: ADME; call rule not given here
[1] = target: T1, Cytochrome P450 2C19 (Homo sapiens, UniProt P33261); experiment: Inhibition of CYP2C19
[2] = target: T1, Cytochrome P450 2C19; experiment: Activity at recombinant CYP2C19 by Michaelis-Menten method; details: recombinant enzyme
[3] = target: T2, Cytochrome P450 2C9 (Homo sapiens, UniProt P11712); experiment: Activity at recombinant CYP2C9 by Michaelis-Menten method; details: recombinant enzyme
[4] = target: T2, Cytochrome P450 2C9; experiment: Inhibition of CYP2C9 assessed as decrease in catalytic reaction velocity at 200 uM by substrate-inhibition assay
[5] = target: T1, Cytochrome P450 2C19; experiment: Inhibition of CYP2C19 assessed as decrease in catalytic reaction velocity at 100 uM by substrate-inhibition assay

T1 sequence (P33261 whole entry): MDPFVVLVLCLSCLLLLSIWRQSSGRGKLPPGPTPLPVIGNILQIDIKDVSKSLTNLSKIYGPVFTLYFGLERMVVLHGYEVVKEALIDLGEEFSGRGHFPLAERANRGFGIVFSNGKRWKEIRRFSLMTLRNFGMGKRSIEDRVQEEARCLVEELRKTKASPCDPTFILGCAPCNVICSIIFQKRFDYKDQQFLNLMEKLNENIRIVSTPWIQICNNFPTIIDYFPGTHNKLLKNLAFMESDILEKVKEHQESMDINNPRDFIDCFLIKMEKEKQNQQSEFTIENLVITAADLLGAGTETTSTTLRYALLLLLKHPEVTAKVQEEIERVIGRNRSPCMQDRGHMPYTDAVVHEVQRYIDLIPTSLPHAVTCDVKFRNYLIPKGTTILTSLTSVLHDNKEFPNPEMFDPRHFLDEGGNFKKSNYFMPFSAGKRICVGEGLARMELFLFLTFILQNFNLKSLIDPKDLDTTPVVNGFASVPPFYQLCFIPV
T2 sequence (P11712 whole entry): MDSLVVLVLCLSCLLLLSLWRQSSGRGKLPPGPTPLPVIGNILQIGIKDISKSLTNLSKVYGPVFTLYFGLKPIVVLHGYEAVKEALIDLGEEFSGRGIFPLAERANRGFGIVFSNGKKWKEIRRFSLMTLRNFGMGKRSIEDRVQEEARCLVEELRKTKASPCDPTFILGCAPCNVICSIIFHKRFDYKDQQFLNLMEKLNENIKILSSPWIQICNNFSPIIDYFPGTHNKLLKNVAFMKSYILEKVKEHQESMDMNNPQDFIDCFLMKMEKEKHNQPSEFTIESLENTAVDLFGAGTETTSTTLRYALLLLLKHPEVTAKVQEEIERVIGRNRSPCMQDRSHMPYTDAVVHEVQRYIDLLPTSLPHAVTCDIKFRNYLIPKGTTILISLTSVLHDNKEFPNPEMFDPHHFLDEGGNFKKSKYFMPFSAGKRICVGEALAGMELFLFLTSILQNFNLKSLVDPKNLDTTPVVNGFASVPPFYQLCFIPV

| Compound | pKi [1] | Vmax [2] [pmol/min] | Vmax [3] [pmol/min] | inhibition (INH) [4] | inhibition (INH) [5] |
| --- | --- | --- | --- | --- | --- |
| CCC1(c2ccccc2)C(=O)NC(=O)N(Cc2ccccc2)C1=O (configuration not stated) | 4.10 | – | – | – | – |
| Cc1ccc(S(=O)(=O)NC(=O)NN2C[C@@H]3CC[C@@H](O)[C@@H]3C2)cc1 | – | 14.9 | 0.6 | – | – |
| Cc1ccc(S(=O)(=O)NC(=O)NN2CC3CCCC3C2)cc1 (configuration not stated) [GLICLAZIDE] | – | – | – | Not Active | Not Active |
| O=C(NN1C[C@H]2CCC[C@H]2C1)NS(=O)(=O)c1ccc(CO)cc1 [METHYLHYDROXYLGLICLAZIDE] | – | 12.1 | 0.6 | – | – |

Source: ChEMBL document CHEMBL1153865, “The metabolism of CYP2C9 and CYP2C19 for gliclazide by homology modeling and docking study” (Eur J Med Chem, 2009)
